Reference: US8691517B2, “Flexible carbohydrate-bearing polymer” (Medtronic Minimed, Inc., priority 2005, dated 2014)

Biological target: MBL (Homo sapiens, UniProt P11226)
Experiment: affinity of monomeric saccharide unit to MBL
Type: binding

MBL, sequence (P11226 21-248): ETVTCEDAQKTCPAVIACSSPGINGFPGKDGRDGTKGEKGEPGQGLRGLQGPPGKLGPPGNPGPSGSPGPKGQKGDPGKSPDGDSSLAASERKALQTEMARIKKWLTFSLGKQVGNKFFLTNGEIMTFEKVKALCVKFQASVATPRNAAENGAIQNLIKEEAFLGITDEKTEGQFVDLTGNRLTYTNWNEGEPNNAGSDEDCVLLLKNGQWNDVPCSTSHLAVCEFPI

O=C[C@H](O)[C@@H](O)[C@@H](O)[C@H](O)CO [galactose]
IC50: ~36 mM

CC(=O)N[C@H]1C(O)O[C@H](CO)[C@@H](O)[C@@H]1O (some centres unmarked) [N-acetyl-glucosamine]
IC50: ~6 mM
